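Cultured in 96-well plates, cells were exposed to test compound for 48 hours across five concentrations. Abbreviation: GI50, concentration required for 50% inhibition of growth.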 Activity calls are given as the source filed them. Cut-off read from the data, not from the text of the source: active = GI50 up to about 1.1 µM and inactive = higher.

Some test systems named below: HCC 2998; SK-MEL-28; SF-295; MOLT-4; EKVX; IGROV-1; HCT-116; OVCAR-5; U-251; TK-10; SK-MEL-5; CCRF-CEM; M14; NCI-H23; LOX IMVI; ACHN.
Holding throughout (assay): NCI-60 cell line screen, 48 h

Turning to `COC(=O)c1c(C(=O)OC)c2cc(C(=O)c3ccccc3)ccn2c1Cl`, the GI50 in the experiment with HCC 2998 was > 100 µM (inactive); with SK-MEL-28 it was 35.8 µM (inactive); in the experiment on SF-295, 26.4 µM (inactive); with MOLT-4, 17.7 µM (inactive); with EKVX it was 31 µM (inactive); in the experiment on IGROV-1, 53.1 µM (inactive). For the same compound, the GI50 is 39.6 µM (inactive) with HCT-116; 48.4 µM (inactive) with OVCAR-5; 44.2 µM (inactive) in the experiment on U-251; 67.1 µM (inactive) with TK-10; 16.2 µM (inactive) in the experiment on SK-MEL-5; 29.7 µM (inactive) in the experiment on CCRF-CEM. Besides, the GI50 in the experiment with M14 was 34 µM (inactive); in the experiment on NCI-H23, 23.1 µM (inactive); in the experiment with LOX IMVI, 36.1 µM (inactive); in the experiment on ACHN it was 43.8 µM (inactive).
Regarding `CC1=CCC(O)C=CC(C)C(O)C(C)C=C(C)C(=O)c2c(O)c(C)cc3c2C(=O)C(N)=C(NC(=O)/C=C\C=C/C=CC(C)C(O)CC1=O)C3=O` (stereo not given), the GI50 was > 100 µM (inactive) with HCC 2998; > 100 µM (inactive) in the experiment with SK-MEL-28; > 100 µM (inactive) with SF-295; 63.7 µM (inactive) with MOLT-4; > 100 µM (inactive) in the experiment on EKVX; > 100 µM (inactive) in the experiment with IGROV-1. The GI50 was 21.6 µM (inactive) in the experiment with HCT-116; > 100 µM (inactive) with OVCAR-5; > 100 µM (inactive) with U-251; > 100 µM (inactive) in the experiment with TK-10; > 100 µM (inactive) with SK-MEL-5; 67.6 µM (inactive) with CCRF-CEM. The GI50 in the experiment on M14, with NCI-H23, in the experiment with LOX IMVI and with ACHN was > 100 µM (inactive) throughout.
For the compound `O=C1c2ccccc2C(=O)C1(Cl)C1(S(=O)(=O)O)c2ccccc2-c2ccccc21`, the GI50 in the experiment with HCC 2998, with SK-MEL-28, in the experiment on SF-295, in the experiment on MOLT-4, with IGROV-1 and in the experiment on HCT-116 was > 100 µM (inactive) throughout. In addition, the GI50 in the experiment with OVCAR-5, in the experiment with U-251, in the experiment with TK-10, in the experiment on SK-MEL-5, in the experiment with CCRF-CEM and with M14 was > 100 µM (inactive) each time. In addition, the GI50 in the experiment on NCI-H23, with LOX IMVI and in the experiment on ACHN was > 100 µM (inactive) throughout.
Take `COc1ccc(-c2cnoc2-c2ccc(OC)c(OC)c2)cc1OC`: the GI50 in the experiment on HCC 2998 was 1.05 µM (active); in the experiment with SK-MEL-28, 1.62 µM (inactive); in the experiment on SF-295 it was 0.883 µM (active); in the experiment on MOLT-4, 0.893 µM (active); in the experiment on EKVX, 1.31 µM (inactive); in the experiment with IGROV-1, 1.29 µM (inactive). The GI50 is 1.26 µM (inactive) in the experiment on HCT-116; 3.72 µM (inactive) with OVCAR-5; 2.34 µM (inactive) with U-251; 3.85 µM (inactive) with TK-10; 0.908 µM (active) in the experiment on SK-MEL-5; 1.73 µM (inactive) in the experiment on CCRF-CEM. Further, the GI50 in the experiment with M14 is 0.851 µM (active); with NCI-H23, 1.24 µM (inactive); in the experiment on LOX IMVI, 1.42 µM (inactive); in the experiment on ACHN, 4.68 µM (inactive).
Take `O=C(/C=C(\O)C(=O)O)/C=C(\O)c1ccc(Cl)cc1`: the GI50 in the experiment with HCC 2998, in the experiment with SK-MEL-28, in the experiment with SF-295, in the experiment on MOLT-4, with EKVX and in the experiment with IGROV-1 was > 100 µM (inactive) each time. Besides, the GI50 with HCT-116, in the experiment on OVCAR-5, in the experiment with U-251, in the experiment with TK-10, in the experiment with SK-MEL-5 and in the experiment on CCRF-CEM was > 100 µM (inactive) throughout. Further, the GI50 with M14, in the experiment with NCI-H23, in the experiment on LOX IMVI and in the experiment with ACHN was > 100 µM (inactive) each time.
Turning to `CC(C)(CN1CCCCC1)C(=O)CC(SCCN)c1ccc(Cl)cc1` (stereo not given), the GI50 in the experiment on HCC 2998 is 1.85 µM (inactive); in the experiment on SK-MEL-28, 3.43 µM (inactive); in the experiment with SF-295, 3.22 µM (inactive); in the experiment on MOLT-4 it was 1.72 µM (inactive); in the experiment on EKVX, 1.74 µM (inactive); in the experiment on IGROV-1 it was 2.7 µM (inactive). Besides, the GI50 is 2.37 µM (inactive) in the experiment on HCT-116; 3.66 µM (inactive) with OVCAR-5; 3.12 µM (inactive) in the experiment with U-251; 2.26 µM (inactive) with TK-10; 1.73 µM (inactive) in the experiment with SK-MEL-5; 1.55 µM (inactive) in the experiment with CCRF-CEM. In addition, the GI50 was 1.82 µM (inactive) in the experiment with M14, 1.95 µM (inactive) in the experiment on NCI-H23, 2.09 µM (inactive) in the experiment on LOX IMVI and 2.78 µM (inactive) with ACHN.
Turning to `CCc1cc(C(=O)OC)cn1C(=N)c1ccc(Cl)cc1`, the GI50 in the experiment with HCC 2998, in the experiment with SK-MEL-28, in the experiment on SF-295, with MOLT-4, with EKVX and in the experiment with IGROV-1 was > 100 µM (inactive) each time. The GI50 in the experiment on HCT-116, with OVCAR-5, with U-251, in the experiment on TK-10, in the experiment with SK-MEL-5 and in the experiment on CCRF-CEM was > 100 µM (inactive) in each case. For the same compound, the GI50 in the experiment with M14, in the experiment on NCI-H23, with LOX IMVI and with ACHN was > 100 µM (inactive) each time.
On to `O=C1c2c(O)cccc2C(C(=O)CCCCCC(=O)C2c3cccc(O)c3C(=O)c3c(O)cccc32)c2cccc(O)c21`, for which the GI50 was 2.27 µM (inactive) with HCC 2998; 0.804 µM (active) in the experiment with SK-MEL-28; 1.14 µM (inactive) with SF-295; 9.53 µM (inactive) with MOLT-4; 0.957 µM (active) in the experiment on EKVX; 1.14 µM (inactive) with IGROV-1. For the same compound, the GI50 was 0.957 µM (active) with HCT-116; 3.22 µM (inactive) with OVCAR-5; 0.766 µM (active) with U-251; 3.82 µM (inactive) with TK-10; 0.555 µM (active) in the experiment on SK-MEL-5; 1.36 µM (inactive) with CCRF-CEM. For the same compound, the GI50 was 2.45 µM (inactive) in the experiment on M14, 0.692 µM (active) in the experiment with NCI-H23, 0.906 µM (active) with LOX IMVI and 2.72 µM (inactive) in the experiment on ACHN.
Turning to `CC1=Nc2ccccc2NC(c2ccoc2)C1` (stereo not given), the GI50 in the experiment on HCC 2998, in the experiment with SK-MEL-28, in the experiment with SF-295, in the experiment with MOLT-4, in the experiment on EKVX and in the experiment on IGROV-1 was > 100 µM (inactive) in each case. Moreover, the GI50 in the experiment on HCT-116, in the experiment with OVCAR-5, in the experiment with U-251, with TK-10, in the experiment with SK-MEL-5 and with CCRF-CEM was > 100 µM (inactive) in each case. Further, the GI50 with M14, in the experiment with NCI-H23, in the experiment on LOX IMVI and with ACHN was > 100 µM (inactive) each time.
`CCCCCCCCOCC(COC(=O)CCCCCCC)OC(=O)CCCCCCC` (stereo not given): the GI50 in the experiment with HCC 2998, in the experiment with SK-MEL-28, in the experiment with SF-295, in the experiment with MOLT-4, in the experiment on IGROV-1 and in the experiment on HCT-116 was > 100 µM (inactive) each time. Moreover, the GI50 with OVCAR-5 is > 100 µM (inactive); with U-251, > 100 µM (inactive); in the experiment with TK-10 it was > 100 µM (inactive); with SK-MEL-5, > 100 µM (inactive); in the experiment with CCRF-CEM, 57 µM (inactive); in the experiment on M14, > 100 µM (inactive). Also, the GI50 in the experiment on NCI-H23, in the experiment with LOX IMVI and in the experiment with ACHN was > 100 µM (inactive) throughout.
`CC(CN(C)C)C(=O)c1ccccc1` (stereo not given): the GI50 was 26.6 µM (inactive) with HCC 2998; > 41.7 µM (inactive) in the experiment with SK-MEL-28; > 100 µM (inactive) in the experiment on SF-295; 8.22 µM (inactive) in the experiment with MOLT-4; > 50.7 µM (inactive) in the experiment on EKVX; > 100 µM (inactive) in the experiment on IGROV-1. In addition, the GI50 in the experiment on HCT-116 was 28.8 µM (inactive); in the experiment with OVCAR-5 it was 32.3 µM (inactive); with U-251, > 100 µM (inactive); in the experiment with TK-10, > 100 µM (inactive); with SK-MEL-5, > 82.4 µM (inactive); in the experiment on CCRF-CEM, 3.78 µM (inactive). Besides, the GI50 in the experiment with M14 is 24.7 µM (inactive); in the experiment with NCI-H23, 24.9 µM (inactive); in the experiment on LOX IMVI, 14.9 µM (inactive); with ACHN, 24.8 µM (inactive).
For `Cc1cc(N(CCC#N)CCC#N)ccc1/N=N/c1ccc(Br)cc1`, the GI50 with HCC 2998 was > 27 µM (inactive); in the experiment with SK-MEL-28 it was > 100 µM (inactive); in the experiment with SF-295, 21.4 µM (inactive); with MOLT-4, 19.3 µM (inactive); in the experiment with EKVX, 26.8 µM (inactive); in the experiment with IGROV-1 it was 10.9 µM (inactive). Besides, the GI50 was 36.8 µM (inactive) in the experiment on HCT-116; > 100 µM (inactive) in the experiment on OVCAR-5; 19.5 µM (inactive) in the experiment with U-251; 14.3 µM (inactive) in the experiment with TK-10; 12.3 µM (inactive) in the experiment on SK-MEL-5; > 31.6 µM (inactive) with CCRF-CEM. Also, the GI50 is 9.02 µM (inactive) in the experiment with M14, 17.5 µM (inactive) in the experiment on NCI-H23, > 21.7 µM (inactive) with LOX IMVI and 9.12 µM (inactive) with ACHN.

(Values after ChEMBL document CHEMBL1201862, “PubChem BioAssay data set” (2004).)
